Laboratory results from paper PMC2951486 (Journal of Alzheimer's disease : JAD, 2010).

Assays:
[1] = biological target: heparin-induced tau filaments (HITF) (Homo sapiens, UniProt P10636); experiment: Inhibition assay, displacement of [3H]-AST from HITF; details: inhibition of [3H]-AST binding; Ki values only in Fig. 2E
AD-PHF = AD-PHF (Homo sapiens, UniProt P10636); experiment: Double staining immunofluorescence of AD-PHFs with PHF-1 antibody and LNS; details: LNS 0.1 %
[2] = system: AD-PHF immobilized on CM5 sensor chip; experiment: Surface plasmon resonance on immobilized AD-PHFs; format: binding, human; details: SPR, AD-PHFs versus aggregated amyloid
[3] = system: synthetic Aβ peptide (Aβ1–42) aggregates; experiment: Scatchard analysis of [3H]-AST binding to Aβ peptide aggregates; details: amyloid aggregates
AD-PHFs = AD-PHFs (Homo sapiens, UniProt P10636); experiment: Inhibition assay, displacement of [3H]-AST from AD-PHFs; details: inhibition of [3H]-AST binding; Ki values only in Fig. 2E
AD-PHFs, sequence (P10636 623-758 limits assumed): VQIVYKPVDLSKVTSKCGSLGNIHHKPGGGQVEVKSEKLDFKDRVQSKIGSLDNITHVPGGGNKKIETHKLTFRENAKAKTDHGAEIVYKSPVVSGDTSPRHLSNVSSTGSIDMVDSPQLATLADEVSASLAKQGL

[4] = Parallel artificial membrane permeability assay; details: PAMPA, pH 7.4

heparin-induced tau filaments (HITF), sequence (P10636 1-441 isoform P10636-8): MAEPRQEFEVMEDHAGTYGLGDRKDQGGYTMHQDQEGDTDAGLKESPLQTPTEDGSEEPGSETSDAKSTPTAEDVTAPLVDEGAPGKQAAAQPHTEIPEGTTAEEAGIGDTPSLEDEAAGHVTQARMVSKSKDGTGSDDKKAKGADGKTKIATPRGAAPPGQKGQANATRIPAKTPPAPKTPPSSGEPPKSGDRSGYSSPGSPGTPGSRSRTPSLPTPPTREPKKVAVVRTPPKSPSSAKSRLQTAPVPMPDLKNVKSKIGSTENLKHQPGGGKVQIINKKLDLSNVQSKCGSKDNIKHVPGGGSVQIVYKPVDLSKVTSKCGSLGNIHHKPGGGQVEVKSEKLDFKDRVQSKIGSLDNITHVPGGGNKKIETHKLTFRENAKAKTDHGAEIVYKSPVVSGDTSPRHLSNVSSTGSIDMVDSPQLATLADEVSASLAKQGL
AD-PHF, sequence (P10636 623-758 limits assumed): as the sequence (P10636 623-758 limits assumed) above

Papp at 16 h [4] [×10⁻⁶ cm/s]	SMILES	affinity for HITF (relative Ki within the series) [1]	staining of AD-PHF compared with PHF-1 immunostaining (AD-PHF)	response curves (RU) on AD-PHFs surface compared to amyloid surface [2]	ratio Bmax/Kd [3]	affinity for AD-PHFs (relative Ki within the series) (AD-PHFs)
	Cc1c(OCC(F)(F)F)ccnc1C[S+]([O-])c1nc2ccccc2[nH]1 (stereo not shown) [LNS, lansoprazole]	highest affinity for HITF	colocalization of the signals from LNS and PHF-1 mAb	at least five times higher		
145	COc1ccc(CCN2CCC(Nc3nc4ccccc4n3Cc3ccc(F)cc3)CC2)cc1 [AST, astemizole]			at least five times higher	0.06	highest affinity for AD-PHFs
